Measured values published in patent US10040781B2, “Tank-binding kinase inhibitor compounds” (Gilead Sciences, Inc., priority 2014, dated 2018).
Like-named read-outs stand apart in the source and are kept apart here.

Legend:
IKKε = IKKε (Homo sapiens (Human), UniProt Q14164); assay: IKKε TR-FRET enzymatic assay; format: biochemical; conditions: read-out: IKKe IC50
TBK1 = TBK1 (Homo sapiens (Human), UniProt Q9UHD2); assay: TBK1 TR-FRET enzymatic assay;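 also: phosphorylation of a biotinylated Ser/Thr peptide by purified full-length recombinant TBK1, read by TR-FRET after 240 min at 25 °C, IC50 is the geometric mean of at least four runs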
Chain of TBK1 (Q9UHD2 whole entry): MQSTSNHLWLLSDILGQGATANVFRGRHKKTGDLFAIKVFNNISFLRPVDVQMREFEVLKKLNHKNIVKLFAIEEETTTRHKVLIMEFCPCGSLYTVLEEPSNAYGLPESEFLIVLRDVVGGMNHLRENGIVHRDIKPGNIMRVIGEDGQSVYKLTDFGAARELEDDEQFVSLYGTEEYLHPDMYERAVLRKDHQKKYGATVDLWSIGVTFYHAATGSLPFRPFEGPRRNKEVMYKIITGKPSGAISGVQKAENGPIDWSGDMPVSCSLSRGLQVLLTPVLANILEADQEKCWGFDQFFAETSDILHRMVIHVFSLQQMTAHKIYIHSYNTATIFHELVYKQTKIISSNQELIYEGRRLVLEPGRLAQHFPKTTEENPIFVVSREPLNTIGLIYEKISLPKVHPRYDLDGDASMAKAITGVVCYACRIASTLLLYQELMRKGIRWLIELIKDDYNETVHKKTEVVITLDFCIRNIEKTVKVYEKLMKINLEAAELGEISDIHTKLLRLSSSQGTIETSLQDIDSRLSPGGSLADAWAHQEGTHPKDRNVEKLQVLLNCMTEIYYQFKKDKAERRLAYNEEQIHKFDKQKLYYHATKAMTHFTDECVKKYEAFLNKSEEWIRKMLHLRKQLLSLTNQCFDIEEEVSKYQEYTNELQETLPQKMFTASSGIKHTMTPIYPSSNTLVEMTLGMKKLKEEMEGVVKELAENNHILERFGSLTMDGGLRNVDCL

hJAK2 = hJAK2 (Homo sapiens (Human), UniProt O60674); assay: hJAK2 LANCE TR-FRET enzymatic assay; format: biochemical; conditions: read-out: JAK2 IC50
Chain of hJAK2 (O60674 whole entry): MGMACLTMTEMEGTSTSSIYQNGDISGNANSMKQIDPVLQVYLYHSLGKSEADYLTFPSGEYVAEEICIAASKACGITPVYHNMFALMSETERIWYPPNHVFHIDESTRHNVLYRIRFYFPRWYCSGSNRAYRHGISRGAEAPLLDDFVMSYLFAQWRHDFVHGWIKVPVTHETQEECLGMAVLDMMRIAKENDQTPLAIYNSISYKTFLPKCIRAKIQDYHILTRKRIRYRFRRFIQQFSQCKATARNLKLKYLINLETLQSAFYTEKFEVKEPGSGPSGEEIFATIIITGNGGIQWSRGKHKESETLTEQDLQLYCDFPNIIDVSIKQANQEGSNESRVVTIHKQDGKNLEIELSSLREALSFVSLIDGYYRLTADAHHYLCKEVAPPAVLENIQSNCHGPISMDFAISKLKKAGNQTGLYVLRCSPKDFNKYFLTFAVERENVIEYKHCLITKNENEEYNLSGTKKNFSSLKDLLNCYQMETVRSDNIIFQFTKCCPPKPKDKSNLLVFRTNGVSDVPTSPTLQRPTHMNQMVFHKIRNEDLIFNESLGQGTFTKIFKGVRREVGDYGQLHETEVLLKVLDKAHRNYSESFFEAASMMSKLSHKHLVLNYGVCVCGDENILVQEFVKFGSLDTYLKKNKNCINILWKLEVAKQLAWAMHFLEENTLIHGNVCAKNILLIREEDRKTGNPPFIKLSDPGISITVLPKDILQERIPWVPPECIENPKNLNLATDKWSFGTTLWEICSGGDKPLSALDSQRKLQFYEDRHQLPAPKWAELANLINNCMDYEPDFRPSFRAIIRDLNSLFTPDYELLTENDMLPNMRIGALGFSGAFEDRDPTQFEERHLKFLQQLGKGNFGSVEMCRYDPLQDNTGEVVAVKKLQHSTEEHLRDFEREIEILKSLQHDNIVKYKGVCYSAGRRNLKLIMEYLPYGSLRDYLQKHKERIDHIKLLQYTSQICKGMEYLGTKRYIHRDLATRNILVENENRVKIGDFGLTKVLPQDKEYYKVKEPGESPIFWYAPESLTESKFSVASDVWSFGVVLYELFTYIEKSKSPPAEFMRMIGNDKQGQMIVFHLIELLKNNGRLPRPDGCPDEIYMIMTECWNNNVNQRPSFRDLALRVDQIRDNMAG

[1] = TR-FRET, 2×Km ATP, geometric mean of minimum four determinations

Chain of IKKε (Q14164 whole entry): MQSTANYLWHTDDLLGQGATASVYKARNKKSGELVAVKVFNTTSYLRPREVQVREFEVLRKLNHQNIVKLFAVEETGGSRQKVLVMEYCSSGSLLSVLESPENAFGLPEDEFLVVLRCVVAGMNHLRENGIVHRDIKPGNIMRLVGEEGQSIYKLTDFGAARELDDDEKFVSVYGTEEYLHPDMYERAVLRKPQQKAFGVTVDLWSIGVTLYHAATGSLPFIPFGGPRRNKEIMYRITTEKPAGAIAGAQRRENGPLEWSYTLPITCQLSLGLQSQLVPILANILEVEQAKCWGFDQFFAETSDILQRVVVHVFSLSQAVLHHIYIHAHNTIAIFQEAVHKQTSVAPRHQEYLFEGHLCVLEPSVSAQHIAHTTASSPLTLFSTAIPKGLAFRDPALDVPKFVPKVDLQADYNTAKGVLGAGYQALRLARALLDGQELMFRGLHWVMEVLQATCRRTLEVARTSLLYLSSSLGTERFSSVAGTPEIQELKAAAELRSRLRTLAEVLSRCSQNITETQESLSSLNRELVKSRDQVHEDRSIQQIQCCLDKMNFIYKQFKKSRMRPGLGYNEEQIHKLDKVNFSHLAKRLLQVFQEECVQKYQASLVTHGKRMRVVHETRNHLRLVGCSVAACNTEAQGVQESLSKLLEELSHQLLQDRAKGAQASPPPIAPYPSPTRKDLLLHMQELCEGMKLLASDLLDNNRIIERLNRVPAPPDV

| SMILES | IC50 (IKKε; [1]) [nM] | IC50 (TBK1) [nM] | IC50 (hJAK2) [nM] | IC50 (IKKε) [nM] |
| --- | --- | --- | --- | --- |
| N#Cc1cc(-c2ncnc(Nc3ccc(N4CCN(C5COC5)CC4)cc3)n2)ccc1N1CC[C@@H](O)C1 [Example 202, (R)-2-(3-hydroxypyrrolidin-1-yl)-5-(4-((4-(4-(oxetan-3-yl)piperazin-1-yl)phenyl)amino)-1,3,5-triazin-2-yl)benzonitrile] |  | 3 | 192 | 13 |
| N#Cc1cc(-c2ncnc(Nc3ccc(N4CCN(C5COC5)CC4)c(F)c3)n2)ccc1O[C@H]1CCN(C(=O)CO)C[C@H]1F [Example 240, 2-(((3R,4S)-3-fluoro-1-(2-hydroxyacetyl)piperidin-4-yl)oxy)-5-(4-((3-fluoro-4-(4-(oxetan-3-yl)piperazin-1-yl)phenyl)amino)-1,3,5-triazin-2-yl)benzonitrile] |  | 1 | 199 | 1 |
| N#Cc1cc(-c2ncnc(Nc3ccc(N4CCN(C5COC5)CC4)cc3)n2)ccc1O[C@H]1CCN(C(=O)c2cc[nH]c(=O)c2)C[C@H]1F [Example 137, 2-(((3R,4S)-3-fluoro-1-(2-oxo-1,2-dihydropyridine-4-carbonyl)piperidin-4-yl)oxy)-5-(4-((4-(4-(oxetan-3-yl)piperazin-1-yl)phenyl)amino)-1,3,5-triazin-2-yl)benzonitrile] |  | 19 | 207 | 32 |
| N#Cc1cc(-c2ncnc(Nc3ccc(N4CCOCC4)cc3)n2)ccc1O[C@@H]1CCN(C(=O)CO)C1 [Example 103, (R)-2-((1-(2-hydroxyacetyl)pyrrolidin-3-yl)oxy)-5-(4-((4-morpholinophenyl)amino)-1,3,5-triazin-2-yl)benzonitrile] |  | 6 | 260 | 10 |
| N#Cc1cc(-c2ncnc(Nc3ccc(N4CCN(C5COC5)CC4)cc3)n2)ccc1O[C@H]1CCN(C(=O)C2CCS(=O)(=O)N2)C[C@H]1F (stereo partly drawn) [Example 118, 2-(((3R,4S)-1-(1,1-dioxidoisothiazolidine-3-carbonyl)-3-fluoropiperidin-4-yl)oxy)-5-(4-((4-(4-(oxetan-3-yl)piperazin-1-yl)phenyl)amino)-1,3,5-triazin-2-yl)benzonitrile] |  | 7 | 284 | 11 |
| C[C@H](O)C(=O)N1CC[C@H](Oc2ccc(-c3ncnc(Nc4ccc(N5CCN(C6COC6)C[C@@H]5C)cc4)n3)cc2C#N)C(F)(F)C1 [Example 252, 2-(((S)-3,3-difluoro-1-((S)-2-hydroxypropanoyl)piperidin-4-yl)oxy)-5-(4-((4-((S)-2-methyl-4-(oxetan-3-yl)piperazin-1-yl)phenyl)amino)-1,3,5-triazin-2-yl)benzonitrile] |  | 3 | 213 | 1 |
| N#Cc1cc(-c2ncnc(Nc3ccc(N4CCN(C5COC5)CC4)cc3)n2)ccc1O[C@H]1CCN(C(=O)[C@H]2CC(F)(F)CN2)C[C@H]1F [Example 132, 2-(((3R,4S)-1-((R)-4,4-difluoropyrrolidine-2-carbonyl)-3-fluoropiperidin-4-yl)oxy)-5-(4-((4-(4-(oxetan-3-yl)piperazin-1-yl)phenyl)amino)-1,3,5-triazin-2-yl)benzonitrile] |  | 25 | ≥ 1000 | 51 |
| C[C@H](O)C(=O)N1CC[C@H](Oc2ccc(-c3ncnc(Nc4cnn(C(C)(C)C)c4)n3)cc2C#N)[C@H](F)C1 [Example 294, 5-(4-((1-(tert-butyl)-1H-pyrazol-4-yl)amino)-1,3,5-triazin-2-yl)-2-(((3R,4S)-3-fluoro-1-((S)-2-hydroxypropanoyl)piperidin-4-yl)oxy)benzonitrile] |  | 4 | 228 | 5 |
| CC1(C)C(=O)Nc2ccc(Nc3ncnc(-c4ccc(OC5CCOCC5)c(C#N)c4)n3)cc21 [Example 278, 5-(4-((3,3-dimethyl-2-oxoindolin-5-yl)amino)-1,3,5-triazin-2-yl)-2-((tetrahydro-2H-pyran-4-yl)oxy)benzonitrile] |  | 4 | 541 | 9 |
| C[C@H](O)C(=O)N1CC(Oc2ccc(-c3ncnc(Nc4ccc(N5CCN(C6COC6)CC5)cc4)n3)cc2C#N)C(F)(F)C1 (stereo partly drawn) [Example 198, 2-((4,4-difluoro-1-((S)-2-hydroxypropanoyl)pyrrolidin-3-yl)oxy)-5-(4-((4-(4-(oxetan-3-yl)piperazin-1-yl)phenyl)amino)-1,3,5-triazin-2-yl)benzonitrile] |  | 10 | 265 | 68 |
| N#Cc1cc(-c2ncnc(Nc3ccc(N4CCN(C5COC5)CC4)cc3)n2)ccc1OC1CCCOC1 (stereo not drawn) [Example 34, 5-(4-((4-(4-(oxetan-3-yl)piperazin-1-yl)phenyl)amino)-1,3,5-triazin-2-yl)-2-((tetrahydro-2H-pyran-3-yl)oxy)benzonitrile] |  | 12 | > 1000 | 45 |
| Cn1nccc1Nc1ncnc(-c2ccc(OC3CCOCC3)c(C#N)c2)n1 [Example 73, 5-(4-((1-methyl-1H-pyrazol-5-yl)amino)-1,3,5-triazin-2-yl)-2-((tetrahydro-2H-pyran-4-yl)oxy)benzonitrile] |  | 90 | > 1000 | 202 |
| N#Cc1cc(-c2ncnc(Nc3ccc(N4CCN(C5COC5)CC4)cc3)n2)ccc1N1CCCC1=O [Example 28, 5-[4-[4-[4-(oxetan-3-yl)piperazin-1-yl]anilino]-1,3,5-triazin-2-yl]-2-(2-oxopyrrolidin-1-yl)benzonitrile] |  | 225 | 583 | 529 |
| N#Cc1cc(-c2ncnc(Nc3ccc(N4CCN(C5COC5)CC4)cc3)n2)ccc1OC1CCS(=O)(=O)CC1 [Example 17, 2-((1,1-dioxidotetrahydro-2H-thiopyran-4-yl)oxy)-5-(4-((4-(4-(oxetan-3-yl)piperazin-1-yl)phenyl)amino)-1,3,5-triazin-2-yl)benzonitrile] |  | 9 | 540 | 54 |

Results, then the compound that gave them:

| IC50 (IKKε; [1]) [nM] | IC50 (TBK1) [nM] | IC50 (hJAK2) [nM] | IC50 (IKKε) [nM] | SMILES |
| --- | --- | --- | --- | --- |
| ≥ 1000 | 528 | ≥ 1000 |  | C[C@H](O)C(=O)N1CC[C@H](COc2cc(C#N)cc(-c3ncnc(Nc4ccc(N5CCN(C6COC6)CC5)cc4)n3)c2)C1 [Example 590, 3-(((S)-1-((S)-2-hydroxypropanoyl)pyrrolidin-3-yl)methoxy)-5-(4-((4-(4-(oxetan-3-yl)piperazin-1-yl)phenyl)amino)-1,3,5-triazin-2-yl)benzonitrile] |
|  | 3 | 347 | 2 | C[C@H](O)C(=O)N1CC[C@H](Oc2ccc(-c3ncnc(Nc4ccc(N5CCO[C@H](C(N)=O)C5)cc4)n3)cc2C#N)[C@H](F)C1 [Example 316, (S)-4-(4-((4-(3-cyano-4-(((3R,4S)-3-fluoro-1-((S)-2-hydroxypropanoyl)piperidin-4-yl)oxy)phenyl)-1,3,5-triazin-2-yl)amino)phenyl)morpholine-2-carboxamide] |
|  | 5 | ≥ 1000 | 3 | C[C@H](O)C(=O)N1CC[C@H](Oc2ccc(-c3ncnc(Nc4ccc(N5CCN(C6COC6)CC5)nc4)n3)cc2C#N)[C@H](F)C1 [Example 379, 2-(((3R,4S)-3-fluoro-1-((S)-2-hydroxypropanoyl)piperidin-4-yl)oxy)-5-(4-((6-(4-(oxetan-3-yl)piperazin-1-yl)pyridin-3-yl)amino)-1,3,5-triazin-2-yl)benzonitrile] |
| 3 | 3 | 601 |  | N#Cc1cc(-c2ncnc(Nc3cnn(CCO)c3)n2)ccc1O[C@H]1CCN(C(=O)CO)C[C@H]1F [Example 506, 2-(((3R,4S)-3-fluoro-1-(2-hydroxyacetyl)piperidin-4-yl)oxy)-5-(4-((1-(2-hydroxyethyl)-1H-pyrazol-4-yl)amino)-1,3,5-triazin-2-yl)benzonitrile] |
|  | 1000 | ≥ 1000 | ≥ 1000 | C[C@H](O)C(=O)N1CC[C@H](Oc2ccc(-c3ncnc(Nc4ccc(N5CCN(C6COC6)CC5)cc4F)n3)cc2C#N)[C@H](F)C1 [Example 375, 2-(((3R,4S)-3-fluoro-1-((S)-2-hydroxypropanoyl)piperidin-4-yl)oxy)-5-(4-((2-fluoro-4-(4-(oxetan-3-yl)piperazin-1-yl)phenyl)amino)-1,3,5-triazin-2-yl)benzonitrile] |
| 2 | 4 | ≥ 1000 |  | COc1cc(Nc2ncnc(-c3ccc(O[C@H]4CCN(C(=O)[C@@H](O)CO)C[C@H]4F)c(C#N)c3)n2)cnc1N1CCN(C2COC2)CC1 [Example 511, 2-(((3R,4S)-1-((S)-2,3-dihydroxypropanoyl)-3-fluoropiperidin-4-yl)oxy)-5-(4-((5-methoxy-6-(4-(oxetan-3-yl)piperazin-1-yl)pyridin-3-yl)amino)-1,3,5-triazin-2-yl)benzonitrile] |
| 22 | 11 | 108 |  | CC(C)(C)n1cc(Nc2ncnc(-c3ccc(O[C@H]4CCN(C(=O)CC#N)C[C@H]4F)c(C#N)c3)n2)cn1 [Example 459, 5-(4-((1-(tert-butyl)-1H-pyrazol-4-yl)amino)-1,3,5-triazin-2-yl)-2-(((3R,4S)-1-(2-cyanoacetyl)-3-fluoropiperidin-4-yl)oxy)benzonitrile] |
| 1 | 4 | 183 |  | COCC(=O)N1CC[C@H](Oc2ccc(-c3ncnc(Nc4ccc(C5CCN(C)CC5)c(C)c4)n3)cc2C#N)[C@H](F)C1 [Example 489, 2-(((3R,4S)-3-fluoro-1-(2-methoxyacetyl)piperidin-4-yl)oxy)-5-(4-((3-methyl-4-(1-methylpiperidin-4-yl)phenyl)amino)-1,3,5-triazin-2-yl)benzonitrile] |
|  | 3 | 274 | 1 | N#Cc1cc(-c2ncnc(Nc3ccc(N4CCNCC4)c(F)c3)n2)ccc1O[C@H]1CCN(C=O)C[C@H]1F [Example 296, 2-(((3R,4S)-3-fluoro-1-formylpiperidin-4-yl)oxy)-5-(4-((3-fluoro-4-(piperazin-1-yl)phenyl)amino)-1,3,5-triazin-2-yl)benzonitrile] |
